Results on two compounds are retold here after publication PMC10591299, “Targeting SHP2 with an Active Site Inhibitor Blocks Signaling and Breast Cancer Cell Phenotypes” (ACS Bio & Med Chem Au, 2023).

Where two headings read alike, the source gives them in different places.

In assay [1] the target is T1, SHP2 (Homo sapiens, UniProt Q06124).
T1 construct: the GST fusion of the PTP domains of SHP2, SHP1, and PTP1B were produced and purified as reported by us previously; GST; made in house
T1 sequence (Q06124 247-517 limits assumed): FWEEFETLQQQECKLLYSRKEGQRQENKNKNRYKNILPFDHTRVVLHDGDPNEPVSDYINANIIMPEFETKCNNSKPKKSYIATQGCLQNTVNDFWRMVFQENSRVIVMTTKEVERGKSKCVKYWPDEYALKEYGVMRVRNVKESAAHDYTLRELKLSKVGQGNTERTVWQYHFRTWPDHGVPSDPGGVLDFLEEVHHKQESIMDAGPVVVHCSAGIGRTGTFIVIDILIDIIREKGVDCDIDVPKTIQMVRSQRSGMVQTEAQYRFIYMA
Kind of assay: PTPase assay, GST-fusion PTP domain of SHP2, DiFMUP substrate. It is filed as biochemical. The following applies: for fold difference: SHP2 IC50 relative to CNBCA. The method, then:
After completion of synthesis, both CNBCA and CNBBA were purified on silica gel, and purity was determined by HPLC. The purified compounds were then tested for their effect on the SHP2 enzyme activity and on the activity of the selected control PTPs (SHP1 and PTP1B) by the phosphotyrosyl phosphatase (PTPase) assay as described previously.[30],[31] First, the GST fusion of the PTP domains of SHP2, SHP1, and PTP1B were produced and purified as reported by us previously.[32] The reactions were performed in a buffer containing 10 mM Tris-HCl (pH 7.2), 100 mM NaCl, 1 mM EDTA, 1 mM dithiothreitol (DTT), and 0.01% Tween-20. Briefly, CNBCA or CNBBA was added first in a serial dilution ranging from 100 μM to 97 nM followed by the enzymes (SHP2, SHP1, or PTP1B) to a final concentration of 1 nM. After 5 min of incubation at room temperature, the reactions were started by adding the artificial substrate DiFMUP (6,8-difluoro-4-methylumbelliferyl phosphate) to a final concentration of 20 μM for SHP2, 35 μM for SHP1, and 10 μM for PTP1B in a reaction volume of 100 μL; variations in DiFMUP concentrations reflect the reported Km values for the respective PTPs.[33] The complete mixture was incubated at 37 °C for 20 min, and fluorescence intensity was measured by the Synergy 4 plate reader at the excitation and emission wavelengths of 360 and 460 nm, respectively. The half inhibitory concentration (IC50) value of each compound was calculated and plotted using Graphpad Prism software.
We used the PTPase assay described previously[30],[31] to evaluate the effect of the newly synthesized compounds on the enzymatic activity of SHP2, SHP1, and PTP1B. The PTP domains of the indicated proteins were prepared as reported by us recently.[32] The artificial PTP substrate DiFMUP (6,8-Difluoro-4-Methylumbelliferyl Phosphate) was purchased from Invitrogen. The purified proteins were dialyzed into a phosphatase buffer containing 10 mM Tris-HCl ([…]), 100 mM NaCl, 1.0 mM EDTA, 1.0 mM dithiothreitol (DTT), and 0.01% Tween-20. Briefly, the PTPase reactions were performed in 100 μL volume containing 1 nM enzyme, inhibitors in serial dilutions (12 nM to 100 μM), and DiFMUP to a final concentration of 20 μM for SHP2, 35 μM for SHP1, and 10 μM for PTP1B. Differences in DiFMUP concentrations reflect the reported Km values for each PTP.[37] The mixtures were incubated at 37 °C for 20 min and transferred to 96 well plates, and the fluorescence intensity was measured by a Synergy 4 plate reader at the excitation and emission wavelengths of 360 and 460 nm, respectively. Graphpad Prism software was used to calculate the IC50 values.

Assay [2] has as its target T1, SHP2. Set-up: method as in PMID 33043190. The following applies: previously published parent compound, included for comparison; cited from earlier work.
In assay [3] the target is T2, SHP1 (Homo sapiens, UniProt P29350).
T2 construct: The GST fusion PTP domains of SHP1 and PTP1B were expressed and purified in a fashion similar to that of SHP2; GST; made in house
T2 sequence (P29350 244-515 limits assumed): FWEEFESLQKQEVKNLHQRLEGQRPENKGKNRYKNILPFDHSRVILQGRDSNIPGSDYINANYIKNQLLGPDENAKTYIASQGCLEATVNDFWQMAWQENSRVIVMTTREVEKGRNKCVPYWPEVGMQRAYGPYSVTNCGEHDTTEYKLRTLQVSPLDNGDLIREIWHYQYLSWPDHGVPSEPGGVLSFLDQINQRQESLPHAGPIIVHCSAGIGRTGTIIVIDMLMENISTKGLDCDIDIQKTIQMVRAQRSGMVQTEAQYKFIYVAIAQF
Set-up: method as in PMID 33043190. The following applies: previously shown; cited from earlier work.

`CCCCCCCCCOc1ccc(-c2ccc(CC(=O)O)cc2)cc1CCCC(=O)O` [CNBBA, 4-(4′-(carboxymethyl)-4-(nonyloxy)-[1,1′-biphenyl]-3-yl) butanoic acid]: the IC50 in assay [1] (PTP domain, 1 nM enzyme, 20 μM DiFMUP, 37 °C 20 min) was found to be 5.1 µM. Further, the fold difference in assay [1] was 5.8 fold.

Regarding `CCCCCCCCCOc1c(CCCC(=O)O)cc(-c2ccc(C(=O)O)cc2)cc1CCCC(=O)O` [CNBDA], the fold difference in assay [1] is listed as 5.7 fold. Moreover, the 50% inhibitory concentration (IC50) in assay [2] is 5 µM. In addition, the “selectivity for inhibition of SHP2 over SHP1” value in assay [3] was “approximately 25 fold”.
